Data as given in US8361968B2 (Takeda Pharmaceutical Company Limited, priority 2002, dated 2013).
Numbered stars: 1 amine (or outer) side, 2 acyl side, 3 side chain; on linkers, the order of the positions; unused ones are H or OH. Square brackets hold non-standard residues; d marks the D form. Ends that are not written are not given here. Peptide text beside a SMILES is read from it. * marks the point of attachment. X5 = NC(=O)C[C@@H](CN([C@@H](Cc1c[nH]c2ccccc12)C(=O)[*:2])[*:1])N[*:3]; Phe(3-Cl) = N[C@@H](Cc1cccc(Cl)c1)C(=O)O; 2Nal = N[C@@H](Cc1ccc2ccccc2c1)C(=O)O; Arg(Me) = CNC(=N)NCCC[C@H](N)C(=O)O; Fmoc = O=C(OCC1c2ccccc2-c2ccccc21)*; 4Pal = N[C@@H](Cc1ccncc1)C(=O)O; d4Pal = N[C@H](Cc1ccncc1)C(=O)O; Cha = N[C@@H](CC1CCCCC1)C(=O)O; azaGly = NNC(=O)O

target: hOT7T175 (Homo sapiens, UniProt Q969F8, L364H); assay: Intracellular Ca ion level-increasing activity using FLIPR in hOT7T175/CHO; format: cell-based; parameters: expressed in transfected cells; host or cells: CHO/dhfr- cells, obtained from ATCC; conditions: relative, Metastin (1-54) = 1
Sequence (Q969F8 whole entry L364H): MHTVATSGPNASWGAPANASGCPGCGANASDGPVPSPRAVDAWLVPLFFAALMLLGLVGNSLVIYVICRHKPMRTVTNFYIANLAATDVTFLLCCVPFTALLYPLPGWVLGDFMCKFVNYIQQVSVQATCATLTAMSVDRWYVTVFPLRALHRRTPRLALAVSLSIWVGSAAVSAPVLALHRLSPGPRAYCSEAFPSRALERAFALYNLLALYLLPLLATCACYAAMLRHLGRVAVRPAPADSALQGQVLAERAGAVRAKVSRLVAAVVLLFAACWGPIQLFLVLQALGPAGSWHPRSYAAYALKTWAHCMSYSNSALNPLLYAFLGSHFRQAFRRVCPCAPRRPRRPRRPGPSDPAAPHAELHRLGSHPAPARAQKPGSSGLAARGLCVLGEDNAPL
Protocol: Assay for Intracellular Ca Ion Level-Increasing Activity Using Flipr
In accordance with the method described in JPA 2000-312590, the intracellular Ca ion level-increasing activity was measured using FLIPR.
The stable expression cell line hOT7T175 was acquired by transduction of expression plasmid pAK-rOT175 for animal cells into CHO/dhff cells, using CellPhect Transfection Kit (Amersham Pharmacia Biotech, Inc.). First, 240 μL of Buffer A (attached to CellPhect Transfection Kit) was added to 9.6 μg of plasmid DNA dissolved in 240 μl of distilled water, followed by stirring. After settling the mixture for 10 minutes, 480 μL of Buffer B (attached to CellPhect Transfection Kit) was added to the mixture, which was vigorously stirred to form DNA-containing liposomes. Then, 4×10^5 CHO/dhff cells (obtained from ATCC) were inoculated on a 60 mm Petri dish. […] After culturing the cells at 37° C. for 6 hours in 5% carbon dioxide gas, the cells were washed twice with serum-free Ham's F-12 medium and 3 ml of 15% glycerol was added to the cells in the Petri dish to treat for 2 minutes. The cells were again washed twice with serum-free Ham's F-12 medium followed by incubation in Ham's F-12 medium supplemented with 10% fetal bovine serum at 37° C. for 15 hours in 5% carbon dioxide gas. The cells were dispersed by trypsin treatment and recovered from the Petri dish. The recovered cells were inoculated on a 6-well plate in 1.25×10^4 cells/well and incubation was initiated at 37° C. in Dulbecco's modified Eagle medium (DMEM) medium (Nissui Seiyaku Co., Ltd.) containing 10% dialyzed fetal bovine serum (JRH BIOSCIENCES, Inc.) under 5% carbon dioxide gas. […] The medium was exchanged on Days 1 and 2 to remove the cells died.
The intracellular Ca ion level-increasing activity of the synthetic peptide in hOT7T175/CHO was determined using FLIPR (Molecular Devices, Inc.).
hOT7T175/CHO was subcultured in DMEM supplemented with 10% dialyzed fetal bovine serum (hereinafter abbreviated as dFBS) and provided for the experiment (hereinafter abbreviated as 10% dFBS/DMEM). The hOT7T175/CHO was suspended in 10% dFBS-DMEM in 15×10^4 cells/ml. The suspension was inoculated on a 96-well plate for FLIPR (Black Plate Clear Bottom, Coster, Inc.) at 200 μL each (3.0×10^4 cells/200 μL/well), followed by incubation at 37° C. overnight in a 5% CO2 incubator (hereinafter simply referred to as the cell plate). Then, 21 ml of HANKS/HBSS (9.8 g of HANKS, 0.35 g of sodium hydrogencarbonate, 20 ml of 1M HEPES; after adjusting the pH to 7.4 with 1N sodium hydroxide, the mixture was sterilized by filtration), 210 μl of 250 mM Probenecid and […] of fetal bovine serum (FBS) were mixed (HANKS/HBSS-Probenecid-FBS).
Furthermore, 2 vials of Fluo3-AM (50 μug/vial) were dissolved in 21 μL of dimethylsulfoxide and 21 μL of 20% Pluronic acid. The resulting solution was added to and mixed with 10 ml of HANKS/HBSS-Probenecid-FBS described above. After the culture medium was removed, the mixture was dispensed onto the cell plate in 100 μL each/well, followed by incubation at 37° C. for an hour in a 5% CO2 incubator (pigment loading). The peptide was dissolved in dimethylsulfoxide in 1×10^−3 M. The peptide solution was diluted with HANKS/HBSS containing 2.5 mM Probenecid, 0.2% BSA and 0.1% CHAPS.

Specific Activity (intracellular Ca ion level-increasing activity)	Compound
5	CC(C)C[C@H](NC(=O)CNC(=O)[C@H](Cc1ccccc1)NC(=O)[C@H](CO)NC(=O)[C@H](CC(N)=O)NC(=O)[C@H](Cc1c[nH]c2ccccc12)NC(=O)OCC1c2ccccc2-c2ccccc21)C(=O)N[C@@H](CCCNC(=N)N)C(=O)N[C@@H](Cc1ccccc1)C(N)=O [Compound No. 54] (Fmoc-WNSFGLRF-NH2)
30	CC(C)C[C@H](NC(=O)CNC(=O)[C@H](Cc1ccccc1)NC(=O)[C@H](CO)NC(=O)[C@H](CC(N)=O)NC(=O)[C@@H](Cc1c[nH]c2ccccc12)NC(=O)[C@H](CC(N)=O)NC(=O)[C@@H](N)Cc1ccc(O)cc1)C(=O)N[C@@H](CCCNC(=N)N)C(=O)N[C@@H](Cc1ccccc1)C(N)=O [Compound No. 40]
5	CC(C)C[C@H](NC(=O)CNC(=O)[C@H](Cc1ccccc1)NC(=O)[C@H](CO)NC(=O)[C@H](CC(N)=O)NC(=O)[C@H](Cc1c[nH]c2ccccc12)NC(=O)[C@H](CC(N)=O)NC(=O)[C@@H](N)Cc1ccc(O)cc1)C(=O)N[C@@H](CCCNC(=N)N)C(=O)N[C@@H](Cc1ccncc1)C(N)=O [Compound No. 17] (H-YNWNSFGLR[4Pal]-NH2)
10	CNC(=N)NCCC[C@H](NC(=O)[C@H](CC(C)C)NC(=O)CNC(=O)[C@H](CC1CCCCC1)NC(=O)[C@H](CO)NC(=O)[C@H](CC(N)=O)NC(=O)[C@H](Cc1c[nH]c2ccccc12)NC(=O)[C@H](CC(N)=O)NC(=O)[C@H](N)Cc1ccc(O)cc1)C(=O)N[C@@H](Cc1ccccc1)C(N)=O [Compound No. 203, D-Tyr-Asn-Trp-Asn-Ser-Cha-Gly-Leu-Arg(Me)-Phe-NH2] (H-[dY]NWNS[Cha]GL[Arg(Me)]F-NH2)
2	CNC(=N)NCCC[C@H](NC(=O)[C@H](CC(C)C)NC(=O)NNC(=O)[C@H](Cc1ccccc1)NC(=O)[C@H](CO)NC(=O)[C@H](CC(N)=O)NC(=O)[C@H](CC1CCCCC1)NC(=O)[C@@H](CC(N)=O)NC(=O)[C@H](N)Cc1ccncc1)C(=O)N[C@@H](Cc1ccccc1)C(N)=O [Compound No. 306, D-Pya(4)-D-Asn-Cha-Asn-Ser-Phe-AzaGly-Leu-Arg(Me)-Phe-NH2] (H-[d4Pal][dN][Cha]NSF[azaGly]L[Arg(Me)]F-NH2)
20	CC(C)C[C@H](NC(=O)CNC(=O)[C@H](Cc1ccccc1)NC(=O)[C@H](CO)NC(=O)[C@H](CC(N)=O)NC(=O)[C@H](Cc1c[nH]c2ccccc12)NC(=O)[C@H](CC(N)=O)NC(=O)[C@@H](N)Cc1ccc(O)cc1)C(=O)N[C@@H](CCCNC(=N)N)C(=O)N[C@@H](Cc1ccc2ccccc2c1)C(N)=O [Compound No. 110] (H-YNWNSFGLR[2Nal]-NH2)
10	CC[C@H](C)[C@H](NC(=O)[C@H](CC(N)=O)NC(=O)[C@H](N)Cc1ccc(O)cc1)C(=O)N[C@@H](CC(N)=O)C(=O)N[C@@H](CO)C(=O)N[C@@H](Cc1ccccc1)C(=O)NCC(=O)N[C@@H](CC(C)C)C(=O)N[C@@H](CCCNC(=N)NC)C(=O)N[C@@H](Cc1ccccc1)C(N)=O [Compound No. 206] (H-[dY]NINSFGL[Arg(Me)]F-NH2)
2	CNC(=N)NCCC[C@H](NC(=O)[C@H](CC(C)C)NC(=O)NNC(=O)[C@H](Cc1ccccc1)NC(=O)[C@H](CO)NC(=O)[C@H](CC(N)=O)NC(=O)[C@@H](Cc1c[nH]c2ccccc12)NC(=O)[C@H](N)Cc1ccc(O)cc1)C(=O)N[C@@H](Cc1ccccc1)C(N)=O [Compound No. 242, D-Tyr-D-Trp-Asn-Ser-Phe-AzaGly-Leu-Arg(Me)-Phe-NH2] (H-[dY][dW]NSF[azaGly]L[Arg(Me)]F-NH2)
1	CNC(=N)NCCC[C@H](NC(=O)[C@H](CC(C)C)NC(=O)CNC(=O)[C@H](Cc1ccccc1)NC(=O)[C@H](CO)NC(=O)[C@H](CC(N)=O)NC(=O)[C@@H](Cc1c[nH]c2ccccc12)NC(=O)[C@@H](CC(N)=O)NC(=O)[C@H](N)Cc1ccc(O)cc1)C(=O)N[C@@H](Cc1ccccc1)C(N)=O [Compound No. 231, D-Tyr-D-Asn-D-Trp-Asn-Ser-Phe-Gly-Leu-Arg(Me)-Phe-NH2]
1	CNC(=N)NCCC[C@H](NC(=O)[C@H](CC(C)C)NC(=O)NNC(=O)[C@H](Cc1ccccc1)NC(=O)[C@H](CO)NC(=O)[C@H](CC(N)=O)NC(=O)[C@@H](NC(=O)[C@H](CC(N)=O)NC(=O)[C@H](N)Cc1ccc(O)cc1)C(C)C)C(=O)N[C@@H](Cc1ccccc1)C(N)=O [Compound No. 234, D-Tyr-Asn-Val-Asn-Ser-Phe-AzaGly-Leu-Arg(Me)-Phe-NH2] (H-[dY]NVNSF[azaGly]L[Arg(Me)]F-NH2; N-terminus assumed)
1	CC(C)C[C@H](NC(=O)CNC(=O)[C@H](Cc1ccccc1)NC(=O)[C@H](CO)NC(=O)[C@H](CC(N)=O)NC(=O)[C@H](Cc1c[nH]c2ccccc12)NC[C@H](CC(N)=O)NC(=O)[C@@H](N)Cc1ccc(O)cc1)C(=O)N[C@@H](CCCNC(=N)N)C(=O)N[C@@H](Cc1ccccc1)C(N)=O [Compound No. 295] (H-[X5](Tyr)NSFGLRF-NH2)
5	CC(C)C[C@H](NC(=O)CNC(=O)[C@H](Cc1ccc(F)cc1)NC(=O)[C@H](CO)NC(=O)[C@H](CC(N)=O)NC(=O)[C@H](Cc1c[nH]c2ccccc12)NC(=O)[C@H](CC(N)=O)NC(=O)[C@@H](N)Cc1ccc(O)cc1)C(=O)N[C@@H](CCCNC(=N)N)C(=O)N[C@@H](Cc1ccccc1)C(N)=O [Compound No. 154, Tyr-Asn-Trp-Asn-Ser-Phe(4F)-Gly-Leu-Arg-Phe-NH2]
1	CC(C)C[C@H](NC(=O)CNC(=O)[C@H](Cc1ccccc1)NC(=O)[C@H](CC(C)C)NC(=O)[C@H](CC(N)=O)NC(=O)[C@H](Cc1c[nH]c2ccccc12)NC(=O)[C@H](CC(N)=O)NC(=O)[C@@H](N)Cc1ccc(O)cc1)C(=O)N[C@@H](CCCNC(=N)N)C(=O)N[C@@H](Cc1ccccc1)C(N)=O [Compound No. 24] (H-YNWNLFGLRF-NH2)
2	CC(C)C[C@H](NC(=O)CNC(=O)[C@H](Cc1ccccc1)NC(=O)[C@H](CO)NC(=O)[C@H](CC(N)=O)NC(=O)[C@H](Cc1c[nH]c2ccccc12)NC(=O)[C@H](CC(N)=O)NC(=O)[C@@H](N)Cc1ccc(O)cc1)C(=O)N[C@@H](CCCNC(=N)N)C(=O)N[C@@H](Cc1ccccc1F)C(N)=O [Compound No. 19]

Compound	Specific Activity (intracellular Ca ion level-increasing activity)
CNC(=N)NCCC[C@H](NC(=O)[C@H](CC(C)C)NC(=O)NNC(=O)[C@H](Cc1ccccc1)NC(=O)[C@H](CO)NC(=O)[C@H](CC(N)=O)NC(=O)[C@H](Cc1cccc(Cl)c1)NC(=O)[C@H](CC(N)=O)NC(=O)[C@H](N)Cc1ccc(O)cc1)C(=O)N[C@@H](Cc1ccccc1)C(N)=O [Compound No. 248, D-Tyr-Asn-Phe(3Cl)-Asn-Ser-Phe-AzaGly-Leu-Arg(Me)-Phe-NH2] (H-[dY]N[Phe(3-Cl)]NSF[azaGly]L[Arg(Me)]F-NH2)	2
D-Tyr-Asn-Trp-Ser-Ser-Phe-Gly-Leu-Arg(Me)-Phe-NH2 ([dY]NWSSFGL[Arg(Me)]F-NH2; N-terminus assumed; SMILES CNC(=N)NCCC[C@H](NC(=O)[C@H](CC(C)C)NC(=O)CNC(=O)[C@H](Cc1ccccc1)NC(=O)[C@H](CO)NC(=O)[C@H](CO)NC(=O)[C@H](Cc1c[nH]c2ccccc12)NC(=O)[C@H](CC(N)=O)NC(=O)[C@H](N)Cc1ccc(O)cc1)C(=O)N[C@@H](Cc1ccccc1)C(N)=O) [Compound No. 207]	½
